Laboratory results taken from patent US20260276656A1, “GUT MICROBIOTA-RELATED METHODS FOR TREATING DEMENTIA AND AGE-DEPENDENT COGNITIVE DECLINE” (Albert-Ludwigs-Universitat Freiburg, priority 2019, published 2026).

Tests used:
C57BL/6J mice = experiment: Novel object recognition (NOR) test (recognition memory); format: in vivo, mouse; conditions: for recognition memory (Novel Object Recognition test): systemic (intraperitoneal) injection, FIG. 11 right; for NOR test performance: 5 mg/kg i.p. 1 h before
Protocol: In order to acutely deplete the gut microbiota, 15-16 months old SPF males were treated via oral gavage with a mixture of antibiotics (ABX), containing Cefoxitin (Santa Cruz Biotechnology), Gentamicin (Sigma-Aldrich) Metronidazole (Sigma-Aldrich), and Vancomycin (Hikma-pharma), each 10 mg/kg in sterile 1×PBS, for three consecutive days. On the fourth day, the mice were treated with one dose of Clindamycin hydrochloride (33.3 mg/kg) (Sigma-Aldrich). Fecal microbiota transplantations (FMTs) were started 24 h later. To deplete csf1-dependent cells in vivo, including microglia, mice were provided with CSF1R-inhibitor PLX5622 (Plexxicon Inc.) mixed into AIN-76A standard chow at 1200 mg/kg (Research Diets Inc.) ad libitum. Respective controls received AIN-76A standard chow. Mice were injected with 5 mg/kg δ-valerobetaine (MCAT, Germany) 1 h before behavioral testing.
For microbiota depletion studies, SPF mice were treated with 1 mg/ml of ampicillin (Auromedics), neomycin sulfate (Fisher), streptomycin (Sigma) and 0.5 mg/ml of vancomycin (Sagent) in the drinking water for 4-5 weeks (Khosravi et al., 2014). These mice were recolonized via FMT, which was achieved by oral gavage of a faecal slurry. Recipient mice had the food removed from the cage for 2 h prior to FMT. The faecal slurry was obtained by pooling faecal pellets from 8-14 donor mice. The pellets were weighed and resuspended by vortexing for 1 min in 1 mL PBS per 300 mg of faeces. After pelleting larger particles by centrifugation at 500×g for 5 min, the supernatant was collected for FMT. Each recipient mouse received 150 μl of faecal slurry by oral gavage. The remaining slurry was stored at −80° C. for 16S rRNA sequencing. Following FMT, the cages of recipient mice were replenished with dirty bedding and fresh faecal pellets from donor mice once and twice a week, respectively. Faecal pellets for 16S rRNA sequencing were collected the day before FMT and at the end of the experiment and were stored at −80° C. for DNA extraction. For re-colonization of ABX treated mice, FMTs from 8 weeks old or 15-16 months old males were undergone. Fresh fecal pellets are collected under a sterile hood and directly thoroughly homogenized in 0.1% L-Cysteine hydrochloride monohydrate in 1×PBS in order to maintain anaerobic microbes. The homogenates were spun down for 1 min, 200 g at 4° C. and the turbid supernatant was used to orally and rectally gavage the recipient mice. The FMT was performed twice 72 h apart.
NNN-trimethyl-5-aminovalerate was dissolved in 0.9% NaCl and administered i.p. at a dose of 200 mg/kg in a volume of 10 ml/kg. As control the vehicle NaCl was injected.
Mice were tested 40 min after drug- or vehicle injection or 4 weeks after FMT. We first performed the training run for the Novel-object recognition test, followed by the T maze test and then 6 h after the training session mice were tested in the Novel object recognition test. Spatial working memory was tested using the continuous spontaneous alternation task in a T-maze as described previously (Spowart-Manning, L. et al). Briefly, animals were set into the base of a T-maze and allowed to explore a randomly assigned T-maze arm until it returned to the base arm. Subsequently, the blocked arm was opened, and the animal was allowed to explore the complete maze. Once one arm of the T-maze was entered, the other arm was blocked until the animal returned to the base arm. Then, the exit of the base arm was blocked for 5 s and the animal was allowed to explore the maze again. The experiment was stopped after 14 free choice arm entries. Arm entries were scored as alternations if an animal chose the opposing arm compared to the arm visited immediately prior to the scored instance. The Novel Object Recognition (NOR) task was applied to evaluate recognition memory as published previously (Antunes, M. & Biala, G. et al). During the habituation phase, each mouse was allowed to explore two similar objects within a total exploration time of 20 s. […]

[1] = Untargeted metabolomics of blood serum and brain tissue; format: in vivo, mouse; conditions: inferred from similarly elevated levels in serum and brain tissue of old mice
Protocol: Blood serum and hippocampal brain tissue was removed from young and old mice and snap-frozen in liquid nitrogen after determining the weight. Sample analysis was conducted by Metabolon, Inc. using a proprietary series of organic and aqueous extractions to remove the protein content while allowing maximum recovery of small molecules. The extract was divided into two parts: one for analysis by LC and the other for analysis by GC. TurboVap® (Zymark) was used to remove the organic solvent content. Each sample was then frozen and dried under vacuum. The exact methodology can be provided by Metabolon, Inc. as their standard protocol for untargeted mass spectrometry metabolomics.
Samples were snap-frozen upon collection and stored at −80° C. until further processing at Metabolon, Inc. 52. Briefly, recovery standards were added prior to the first step in the extraction process for quality control purposes. […] Three types of controls were analyzed in concert with the experimental samples: samples generated from a pool of spike-in controls extensively characterized by Metabolon, Inc. or generated from a small portion of each experimental sample of interest served as technical replicate throughout the data set; extracted water samples served as process blanks; and a cocktail of standards spiked into every analyzed sample allowed instrument performance monitoring. […]

- blood-brain barrier crossing [1]: cross the blood-brain barrier
Structure (SMILES): C[N+](C)(C)CCCCC(=O)[O-] [NNN-trimethyl-5-aminovalerate, 5-(trimethylammonio) pentanoate]
- NOR: improvement in learning and memory after FMT from young mice (C57BL/6J mice; old mice (15-16 months) +ABX+yFMT, 5 mg/kg i.p. 1 h before testing, FIG. 10G-H): abolished
- recognition memory (Novel Object Recognition test) (C57BL/6J mice; old mice (20-24-month-old)): no additional impairing effects
- NOR test performance (C57BL/6J mice; old mice that had received gut microbiota from old mice (old+ABX+oFMT), FIG. 10G-H): no additional deteriorating effect
- NOR test performance (C57BL/6J mice; young adult mice (8 weeks), versus vehicle, FIG. 10C-D): significantly worse
- recognition memory (Novel Object Recognition test) (C57BL/6J mice; young mice (2-month-old), PBS control): reduced
